Among the data in ChEMBL document CHEMBL1681705, “Optimisation of ITK inhibitors through successive iterative design cycles” (Bioorg Med Chem Lett, 2011) are solubility, residual activity and inhibition values, retold here.

By residual activity is commonly meant the signal under treatment as a percentage of the control signal. For orientation: inhibition means how much of the control response was suppressed. Read a low inhibition as a weak effect.

A short description of data set [1]: Solubility of the compound. Format: physicochemical.
For data set [2], the target named is Ephrin type-A receptor 4 (Homo sapiens) (UniProt P54764). Briefly: Inhibition of EphA4 at 1 uM; values are per cent of control.
Data set [3] concerns the target Serine/threonine-protein kinase pim-2 (Homo sapiens) (UniProt Q9P1W9). Briefly: Inhibition of Pim-2 at 1 uM; values are per cent of control.
For data set [4], the target named is MAP kinase-interacting serine/threonine-protein kinase 2 (Homo sapiens) (UniProt Q9HBH9). Briefly: Inhibition of Mnk2 at 0.1 uM; values are per cent of control.
The target in data set [5] is T1, Tyrosine-protein kinase ZAP-70 (Homo sapiens) (UniProt P43403).
T1 sequence (whole entry): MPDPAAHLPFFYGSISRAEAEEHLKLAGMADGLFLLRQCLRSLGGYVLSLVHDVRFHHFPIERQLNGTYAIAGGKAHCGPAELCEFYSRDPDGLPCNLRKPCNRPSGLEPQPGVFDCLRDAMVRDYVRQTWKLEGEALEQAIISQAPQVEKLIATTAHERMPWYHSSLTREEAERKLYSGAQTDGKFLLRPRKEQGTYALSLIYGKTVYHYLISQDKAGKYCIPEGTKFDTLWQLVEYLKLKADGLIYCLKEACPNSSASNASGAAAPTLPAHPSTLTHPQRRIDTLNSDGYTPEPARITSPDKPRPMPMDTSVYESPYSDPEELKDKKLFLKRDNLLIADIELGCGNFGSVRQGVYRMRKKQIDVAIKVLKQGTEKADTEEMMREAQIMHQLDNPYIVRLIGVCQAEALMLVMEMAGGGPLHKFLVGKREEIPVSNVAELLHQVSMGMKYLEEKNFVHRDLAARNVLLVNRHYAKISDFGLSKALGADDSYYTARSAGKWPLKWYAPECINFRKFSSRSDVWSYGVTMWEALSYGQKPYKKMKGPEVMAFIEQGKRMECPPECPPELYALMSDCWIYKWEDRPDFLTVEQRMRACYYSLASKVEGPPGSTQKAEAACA
Briefly: Inhibition of ZAP70 at 0.1 uM; values are per cent of control.

Data set [6] has as its target T2, Inhibitor of nuclear factor kappa-B kinase subunit beta (Homo sapiens) (UniProt O14920).
T2 sequence (whole entry): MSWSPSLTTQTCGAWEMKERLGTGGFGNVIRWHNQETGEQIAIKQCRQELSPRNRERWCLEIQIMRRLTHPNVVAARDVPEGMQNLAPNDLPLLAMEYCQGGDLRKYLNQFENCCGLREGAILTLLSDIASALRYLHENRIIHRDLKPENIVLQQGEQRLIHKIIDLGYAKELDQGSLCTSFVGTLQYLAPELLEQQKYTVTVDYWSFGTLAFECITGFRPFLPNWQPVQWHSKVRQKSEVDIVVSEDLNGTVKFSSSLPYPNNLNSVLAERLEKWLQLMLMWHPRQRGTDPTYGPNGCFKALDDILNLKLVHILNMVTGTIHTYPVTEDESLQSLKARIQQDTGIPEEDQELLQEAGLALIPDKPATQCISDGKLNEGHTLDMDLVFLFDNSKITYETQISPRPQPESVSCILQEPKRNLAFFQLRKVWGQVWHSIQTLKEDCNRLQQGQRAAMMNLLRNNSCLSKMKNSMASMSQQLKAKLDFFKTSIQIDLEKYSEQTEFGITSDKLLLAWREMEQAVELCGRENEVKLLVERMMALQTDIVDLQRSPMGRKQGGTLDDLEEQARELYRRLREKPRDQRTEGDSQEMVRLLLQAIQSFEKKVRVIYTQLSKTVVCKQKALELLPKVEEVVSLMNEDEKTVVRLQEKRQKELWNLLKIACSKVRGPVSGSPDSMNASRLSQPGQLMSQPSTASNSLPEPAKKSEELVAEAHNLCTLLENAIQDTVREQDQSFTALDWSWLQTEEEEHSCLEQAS
Briefly: Inhibition of IKK-beta at 1 uM; values are per cent of control.

Data set [7] can be described thus: Inhibition of ROCK1 at 1 uM.
Data set [8] addresses Serine/threonine-protein kinase PAK 2 (Homo sapiens) (UniProt Q13177). Briefly: Inhibition of PAK2 at 0.1 uM; values are per cent of control.
The target of data set [9] is T3, Ephrin type-B receptor 3 (Homo sapiens) (UniProt P54753).
T3 sequence (whole entry): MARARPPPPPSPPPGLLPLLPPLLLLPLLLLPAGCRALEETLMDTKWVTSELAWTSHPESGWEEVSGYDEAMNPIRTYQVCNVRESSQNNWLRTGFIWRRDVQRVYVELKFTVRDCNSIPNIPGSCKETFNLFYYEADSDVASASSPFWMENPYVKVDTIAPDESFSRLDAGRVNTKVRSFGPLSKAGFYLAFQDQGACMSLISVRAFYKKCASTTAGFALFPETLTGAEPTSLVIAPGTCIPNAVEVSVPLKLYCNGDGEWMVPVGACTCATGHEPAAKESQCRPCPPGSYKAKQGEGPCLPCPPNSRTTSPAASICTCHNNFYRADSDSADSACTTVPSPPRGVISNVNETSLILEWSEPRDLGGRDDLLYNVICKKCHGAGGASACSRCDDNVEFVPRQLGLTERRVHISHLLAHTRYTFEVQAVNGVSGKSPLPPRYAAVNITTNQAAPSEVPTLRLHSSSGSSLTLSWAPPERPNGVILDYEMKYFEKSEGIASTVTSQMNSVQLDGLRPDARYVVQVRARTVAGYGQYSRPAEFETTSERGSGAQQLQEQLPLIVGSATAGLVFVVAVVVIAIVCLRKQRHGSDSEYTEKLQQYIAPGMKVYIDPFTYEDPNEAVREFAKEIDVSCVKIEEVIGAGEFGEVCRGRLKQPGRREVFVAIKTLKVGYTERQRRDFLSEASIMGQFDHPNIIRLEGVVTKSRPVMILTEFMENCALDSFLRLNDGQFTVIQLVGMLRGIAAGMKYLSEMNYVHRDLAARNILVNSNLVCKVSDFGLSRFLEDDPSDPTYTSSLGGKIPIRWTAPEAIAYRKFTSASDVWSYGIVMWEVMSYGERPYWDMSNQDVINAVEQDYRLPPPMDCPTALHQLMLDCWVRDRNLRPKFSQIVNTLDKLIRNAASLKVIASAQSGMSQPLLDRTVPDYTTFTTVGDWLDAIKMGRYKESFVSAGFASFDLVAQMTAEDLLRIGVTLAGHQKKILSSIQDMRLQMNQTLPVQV
Briefly: Inhibition of EphB3 at 0.1 uM; values are per cent of control.

Chain of MAP kinase-interacting serine/threonine-protein kinase 2 (Homo sapiens) (Q9HBH9 whole entry, looked up): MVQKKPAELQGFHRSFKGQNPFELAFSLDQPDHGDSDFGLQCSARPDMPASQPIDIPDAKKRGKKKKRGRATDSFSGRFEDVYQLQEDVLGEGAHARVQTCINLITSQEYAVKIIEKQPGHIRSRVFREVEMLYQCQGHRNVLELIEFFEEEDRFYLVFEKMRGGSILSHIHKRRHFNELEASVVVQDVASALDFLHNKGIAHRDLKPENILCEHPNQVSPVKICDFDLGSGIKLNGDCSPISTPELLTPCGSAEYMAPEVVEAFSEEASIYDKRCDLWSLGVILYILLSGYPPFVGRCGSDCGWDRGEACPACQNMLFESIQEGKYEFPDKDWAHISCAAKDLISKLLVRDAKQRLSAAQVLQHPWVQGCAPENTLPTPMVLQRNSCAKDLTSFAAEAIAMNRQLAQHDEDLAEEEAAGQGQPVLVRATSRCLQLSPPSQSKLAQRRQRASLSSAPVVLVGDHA
Chain of Ephrin type-A receptor 4 (Homo sapiens) (P54764 whole entry): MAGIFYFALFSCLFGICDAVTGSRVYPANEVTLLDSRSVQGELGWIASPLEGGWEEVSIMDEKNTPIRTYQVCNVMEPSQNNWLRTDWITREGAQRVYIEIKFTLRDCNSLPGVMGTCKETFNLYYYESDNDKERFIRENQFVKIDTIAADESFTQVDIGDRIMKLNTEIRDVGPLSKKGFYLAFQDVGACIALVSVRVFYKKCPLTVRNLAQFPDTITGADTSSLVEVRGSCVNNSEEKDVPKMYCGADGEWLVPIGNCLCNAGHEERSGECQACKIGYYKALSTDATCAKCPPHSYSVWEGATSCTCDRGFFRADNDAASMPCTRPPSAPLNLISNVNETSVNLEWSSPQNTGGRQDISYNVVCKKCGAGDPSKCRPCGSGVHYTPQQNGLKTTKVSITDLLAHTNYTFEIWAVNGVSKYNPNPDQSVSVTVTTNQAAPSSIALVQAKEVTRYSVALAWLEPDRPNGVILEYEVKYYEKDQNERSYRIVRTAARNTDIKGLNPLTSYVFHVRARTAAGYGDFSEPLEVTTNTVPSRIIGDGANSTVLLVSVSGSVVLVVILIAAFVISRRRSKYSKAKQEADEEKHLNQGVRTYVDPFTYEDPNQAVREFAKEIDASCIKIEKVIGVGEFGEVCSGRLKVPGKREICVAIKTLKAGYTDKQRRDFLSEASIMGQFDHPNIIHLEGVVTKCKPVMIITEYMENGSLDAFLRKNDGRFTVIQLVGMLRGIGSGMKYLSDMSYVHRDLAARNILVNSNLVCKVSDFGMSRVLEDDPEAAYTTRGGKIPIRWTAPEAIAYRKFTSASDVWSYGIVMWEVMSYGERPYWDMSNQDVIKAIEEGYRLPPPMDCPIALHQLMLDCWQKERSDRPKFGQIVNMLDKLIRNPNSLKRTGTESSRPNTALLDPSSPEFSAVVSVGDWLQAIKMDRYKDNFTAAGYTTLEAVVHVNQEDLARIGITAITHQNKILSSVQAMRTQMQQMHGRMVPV
Chain of Serine/threonine-protein kinase pim-2 (Homo sapiens) (Q9P1W9 whole entry, looked up): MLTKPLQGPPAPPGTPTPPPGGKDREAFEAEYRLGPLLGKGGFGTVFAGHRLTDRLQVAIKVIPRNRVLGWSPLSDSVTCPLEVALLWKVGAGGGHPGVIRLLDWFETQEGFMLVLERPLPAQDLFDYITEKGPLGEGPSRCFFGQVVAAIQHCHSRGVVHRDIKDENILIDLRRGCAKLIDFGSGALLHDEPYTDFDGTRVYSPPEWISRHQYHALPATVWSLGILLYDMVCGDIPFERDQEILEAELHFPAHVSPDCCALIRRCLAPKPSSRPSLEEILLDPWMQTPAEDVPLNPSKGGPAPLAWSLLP
Chain of Serine/threonine-protein kinase PAK 2 (Homo sapiens) (Q13177 whole entry): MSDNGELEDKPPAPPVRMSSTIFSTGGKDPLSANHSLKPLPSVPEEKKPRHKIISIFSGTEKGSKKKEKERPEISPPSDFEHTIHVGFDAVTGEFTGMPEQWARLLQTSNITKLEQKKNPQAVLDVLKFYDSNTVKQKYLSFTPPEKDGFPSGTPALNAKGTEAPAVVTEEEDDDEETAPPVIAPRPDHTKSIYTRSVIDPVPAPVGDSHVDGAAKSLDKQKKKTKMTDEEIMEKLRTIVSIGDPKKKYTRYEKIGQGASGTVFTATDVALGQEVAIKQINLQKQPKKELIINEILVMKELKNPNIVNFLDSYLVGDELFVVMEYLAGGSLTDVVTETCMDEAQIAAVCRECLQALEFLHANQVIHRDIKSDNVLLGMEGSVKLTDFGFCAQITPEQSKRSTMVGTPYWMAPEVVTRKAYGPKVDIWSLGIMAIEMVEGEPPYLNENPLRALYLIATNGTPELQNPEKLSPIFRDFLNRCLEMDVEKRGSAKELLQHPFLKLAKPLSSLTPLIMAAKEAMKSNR

Take `Cc1ccc2cc(-c3n[nH]c4ccc(NC5CCNC5)cc34)[nH]c2c1` (centres undefined): the solubility result in data set [1] is on record as “soluble”. Further, the residual activity amounted to 72% in [2]; 105% in data set [3]; 52% in data set [4]; 93% in data set [5]; 76% in data set [6].
For `Cc1ccc2cc(-c3n[nH]c4ccc(NC5CCN(Cc6ccccc6)CC5)cc34)[nH]c2c1`, the inhibition in [7] worked out at 45%. The residual activity in data set [2] is 68%; in data set [3] it was 101%; in data set [4] it was 101%; in data set [8], 93%; in data set [9] it was 127%; in [5], 93%. Further, in data set [6], the residual activity stood at 102%.
